Peptide text beside a SMILES is read from it.
Assays:
Assay type in all cases: biochemical
[1] = molecular target: T1, HDAC6 (Homo sapiens, UniProt Q9UBN7); experiment: HDAC6 inhibition, full IC50 measurement (Reaction Biology; fluorogenic p53 peptide RHKK(Ac)AMC)
T1 construct: purchased Reaction Biology Corporation (assay run by the CRO)
T1 sequence (Q9UBN7 1-1215): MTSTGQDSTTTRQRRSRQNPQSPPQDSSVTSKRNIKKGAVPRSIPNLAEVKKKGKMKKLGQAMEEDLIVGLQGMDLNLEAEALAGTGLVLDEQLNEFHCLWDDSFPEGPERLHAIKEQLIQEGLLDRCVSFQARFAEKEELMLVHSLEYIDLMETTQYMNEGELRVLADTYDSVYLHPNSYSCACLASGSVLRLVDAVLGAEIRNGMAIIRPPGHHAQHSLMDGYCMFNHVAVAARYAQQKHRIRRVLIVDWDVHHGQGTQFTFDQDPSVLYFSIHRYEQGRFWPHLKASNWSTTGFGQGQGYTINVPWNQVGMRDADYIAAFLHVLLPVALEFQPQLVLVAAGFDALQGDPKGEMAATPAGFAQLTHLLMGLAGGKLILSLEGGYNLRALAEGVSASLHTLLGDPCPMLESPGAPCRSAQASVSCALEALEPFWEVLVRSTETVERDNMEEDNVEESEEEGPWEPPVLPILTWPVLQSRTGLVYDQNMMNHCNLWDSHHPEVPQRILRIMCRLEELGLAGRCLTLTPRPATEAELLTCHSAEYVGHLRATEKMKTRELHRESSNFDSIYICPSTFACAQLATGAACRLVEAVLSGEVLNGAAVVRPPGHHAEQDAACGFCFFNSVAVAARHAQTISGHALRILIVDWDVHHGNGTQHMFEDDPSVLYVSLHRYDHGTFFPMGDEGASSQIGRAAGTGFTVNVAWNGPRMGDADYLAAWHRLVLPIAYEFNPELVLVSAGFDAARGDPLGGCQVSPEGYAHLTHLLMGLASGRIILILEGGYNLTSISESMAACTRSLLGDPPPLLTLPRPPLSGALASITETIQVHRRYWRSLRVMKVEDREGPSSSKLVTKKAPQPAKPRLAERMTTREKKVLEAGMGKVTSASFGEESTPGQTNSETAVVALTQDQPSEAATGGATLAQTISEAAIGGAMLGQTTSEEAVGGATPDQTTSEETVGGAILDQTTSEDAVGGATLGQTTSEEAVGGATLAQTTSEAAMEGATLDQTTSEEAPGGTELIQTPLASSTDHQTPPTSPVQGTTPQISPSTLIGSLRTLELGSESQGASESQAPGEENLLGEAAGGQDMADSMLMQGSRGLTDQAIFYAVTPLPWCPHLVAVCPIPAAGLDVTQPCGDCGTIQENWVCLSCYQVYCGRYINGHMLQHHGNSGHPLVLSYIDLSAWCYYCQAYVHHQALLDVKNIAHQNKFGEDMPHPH
In short: (§1)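 Deacetylation of 50 μM RHKK(Ac)AMC is measured after 1 h at 30 °C in pH 8.0 Tris buffer (1% DMSO, 1 mg/ml BSA). Developer ends the reaction; the post-plateau 360/460 nm signal is fitted to IC50, averaging replicate measurements.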

[2] = molecular target: T2, HDAC1 (Homo sapiens, UniProt Q13547); experiment: HDAC1 inhibition, full IC50 measurement (Reaction Biology; fluorogenic p53 peptide RHKK(Ac)AMC); settings: t1/t2 replicates
T2 construct: purchased Reaction Biology Corporation (assay run by the CRO)
T2 sequence (Q13547 whole entry): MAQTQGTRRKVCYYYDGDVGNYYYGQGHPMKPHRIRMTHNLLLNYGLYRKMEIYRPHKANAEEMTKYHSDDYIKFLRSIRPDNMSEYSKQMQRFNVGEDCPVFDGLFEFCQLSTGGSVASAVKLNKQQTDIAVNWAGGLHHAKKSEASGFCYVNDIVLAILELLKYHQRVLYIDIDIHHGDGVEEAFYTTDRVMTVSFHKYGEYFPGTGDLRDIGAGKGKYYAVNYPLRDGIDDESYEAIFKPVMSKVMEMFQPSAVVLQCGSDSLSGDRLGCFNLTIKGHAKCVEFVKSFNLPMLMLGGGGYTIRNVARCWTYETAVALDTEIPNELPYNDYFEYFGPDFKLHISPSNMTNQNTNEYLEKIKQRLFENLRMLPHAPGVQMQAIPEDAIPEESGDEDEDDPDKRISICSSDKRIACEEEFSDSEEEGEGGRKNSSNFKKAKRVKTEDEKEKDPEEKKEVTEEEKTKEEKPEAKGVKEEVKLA
In short: as §1

[3] = molecular target: T3, HDAC3 (Homo sapiens, UniProt O15379); experiment: HDAC3 inhibition, full IC50 measurement (Reaction Biology; fluorogenic p53 peptide RHKK(Ac)AMC)
T3 construct: purchased Reaction Biology Corporation (assay run by the CRO)
T3 sequence (O15379 whole entry): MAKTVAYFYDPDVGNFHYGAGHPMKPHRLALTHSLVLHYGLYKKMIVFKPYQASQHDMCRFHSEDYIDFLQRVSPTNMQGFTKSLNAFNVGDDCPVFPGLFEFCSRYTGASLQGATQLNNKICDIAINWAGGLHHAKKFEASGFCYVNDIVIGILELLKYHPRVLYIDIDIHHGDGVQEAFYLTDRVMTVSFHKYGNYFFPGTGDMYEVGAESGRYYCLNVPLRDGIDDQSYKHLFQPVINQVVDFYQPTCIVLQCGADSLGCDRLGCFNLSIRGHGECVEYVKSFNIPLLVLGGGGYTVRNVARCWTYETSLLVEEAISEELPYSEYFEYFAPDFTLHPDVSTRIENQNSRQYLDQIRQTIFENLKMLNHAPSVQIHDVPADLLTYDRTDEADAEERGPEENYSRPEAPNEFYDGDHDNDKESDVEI
T3 sequence (Q9Y618 395-489 partner limits assumed): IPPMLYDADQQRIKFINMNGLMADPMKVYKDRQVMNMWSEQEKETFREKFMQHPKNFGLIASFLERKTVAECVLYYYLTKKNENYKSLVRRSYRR
In short: as §1

SMILES: NCCCC[C@@H]1NC(=O)[C@@H]2CCCN2C(=O)[C@H](CC(N)=O)NC(=O)[C@H](CCCCCS)NC(=O)CNC(=O)[C@H](Cc2c[nH]c3ccccc23)NC(=O)[C@@H](CCCCN)NC(=O)[C@H](CCC(N)=O)NC1=O [des1.1.0, SHA-Asn-Pro-Lys-Gln-dLys-Trp-Gly] (HELM PEPTIDE1{G.[O=C([C@H](CCCCCS)N[*:1])[*:2]].N.P.K.Q.[dK].W}$PEPTIDE1,PEPTIDE1,1:R1-8:R2$$$V2.0)
- HDAC6 activity raw data (signal) ([1]; Conc. 1.00E-05 M, t1): 8262
- HDAC6 activity raw data (signal) ([1]; Conc. 1.00E-05 M, t2): -132
- HDAC6 activity raw data (signal) ([1]; Conc. 1.11E-06 M, t1): 22357
- HDAC6 activity raw data (signal) ([1]; Conc. 1.11E-06 M, t2): 16681
- HDAC6 activity raw data (signal) ([1]; Conc. 1.23E-07 M, t1): 128420
- HDAC6 activity raw data (signal) ([1]; Conc. 1.23E-07 M, t2): 107875
- HDAC6 activity raw data (signal) ([1]; Conc. 1.37E-08 M, t1): 427941
- HDAC6 activity raw data (signal) ([1]; Conc. 1.37E-08 M, t2): 374868
- HDAC6 activity raw data (signal) ([1]; Conc. 1.52E-09 M, t1): 599157
- HDAC6 activity raw data (signal) ([1]; Conc. 1.52E-09 M, t2): 570644
- HDAC6 activity raw data (signal) ([1]; Conc. 3.33E-06 M, t1): 12160
- HDAC6 activity raw data (signal) ([1]; Conc. 3.33E-06 M, t2): 5788
- HDAC6 activity raw data (signal) ([1]; Conc. 3.70E-07 M, t1): 52219
- HDAC6 activity raw data (signal) ([1]; Conc. 3.70E-07 M, t2): 39167
- HDAC6 activity raw data (signal) ([1]; Conc. 4.12E-08 M, t1): 251632
- HDAC6 activity raw data (signal) ([1]; Conc. 4.12E-08 M, t2): 228170
- HDAC6 activity raw data (signal) ([1]; Conc. 4.57E-09 M, t1): 511649
- HDAC6 activity raw data (signal) ([1]; Conc. 4.57E-09 M, t2): 482006
- HDAC6 activity raw data (signal) ([1]; Conc. 5.08E-10 M, t1): 622162
- HDAC6 activity raw data (signal) ([1]; Conc. 5.08E-10 M, t2): 563120
- IC50 ([1]; unit printed only in the axis title, read-out: HDAC6 IC50 (printed in dose-response picture)): 25 nM
- HDAC1 activity raw data (signal) ([2]; peptide conc. 1.00E-05 M, listed as des1.1.0_t1): 20784
- HDAC1 activity raw data (signal) ([2]; peptide conc. 1.00E-05 M, listed as des1.1.0_t2): 14494
- HDAC1 activity raw data (signal) ([2]; peptide conc. 1.11E-06 M, listed as des1.1.0_t1): 173781
- HDAC1 activity raw data (signal) ([2]; peptide conc. 1.11E-06 M, listed as des1.1.0_t2): 153537
- HDAC1 activity raw data (signal) ([2]; peptide conc. 1.23E-07 M, listed as des1.1.0_t1): 723204
- HDAC1 activity raw data (signal) ([2]; peptide conc. 1.23E-07 M, listed as des1.1.0_t2): 656726
- HDAC1 activity raw data (signal) ([2]; peptide conc. 1.37E-08 M, listed as des1.1.0_t1): 1174733
- HDAC1 activity raw data (signal) ([2]; peptide conc. 1.37E-08 M, listed as des1.1.0_t2): 1037204
- HDAC1 activity raw data (signal) ([2]; peptide conc. 1.52E-09 M, listed as des1.1.0_t1): 1283411
- HDAC1 activity raw data (signal) ([2]; peptide conc. 1.52E-09 M, listed as des1.1.0_t2): 1084142
- HDAC1 activity raw data (signal) ([2]; peptide conc. 3.33E-06 M, listed as des1.1.0_t1): 63841
- HDAC1 activity raw data (signal) ([2]; peptide conc. 3.33E-06 M, listed as des1.1.0_t2): 53160
- HDAC1 activity raw data (signal) ([2]; peptide conc. 3.70E-07 M, listed as des1.1.0_t1): 422237
- HDAC1 activity raw data (signal) ([2]; peptide conc. 3.70E-07 M, listed as des1.1.0_t2): 392419
- HDAC1 activity raw data (signal) ([2]; peptide conc. 4.12E-08 M, listed as des1.1.0_t1): 1039124
- HDAC1 activity raw data (signal) ([2]; peptide conc. 4.12E-08 M, listed as des1.1.0_t2): 863645
- HDAC1 activity raw data (signal) ([2]; peptide conc. 4.57E-09 M, listed as des1.1.0_t1): 1182029
- HDAC1 activity raw data (signal) ([2]; peptide conc. 4.57E-09 M, listed as des1.1.0_t2): 1065379
- HDAC1 activity raw data (signal) ([2]; peptide conc. 5.08E-10 M, listed as des1.1.0_t1): 1239936
- HDAC1 activity raw data (signal) ([2]; peptide conc. 5.08E-10 M, listed as des1.1.0_t2): 1111104
- HDAC3 activity raw data (signal) ([3]; Conc. 1.00E-05 M, t1): 5471
- HDAC3 activity raw data (signal) ([3]; Conc. 1.00E-05 M, t2): 9474
- HDAC3 activity raw data (signal) ([3]; Conc. 1.11E-06 M, t1): 58802
- HDAC3 activity raw data (signal) ([3]; Conc. 1.11E-06 M, t2): 66090
- HDAC3 activity raw data (signal) ([3]; Conc. 1.23E-07 M, t1): 406610
- HDAC3 activity raw data (signal) ([3]; Conc. 1.23E-07 M, t2): 410292
- HDAC3 activity raw data (signal) ([3]; Conc. 1.37E-08 M, t1): 1181819
- HDAC3 activity raw data (signal) ([3]; Conc. 1.37E-08 M, t2): 1197870
- HDAC3 activity raw data (signal) ([3]; Conc. 1.52E-09 M, t1): 1432990
- HDAC3 activity raw data (signal) ([3]; Conc. 1.52E-09 M, t2): 1448071
- HDAC3 activity raw data (signal) ([3]; Conc. 3.33E-06 M, t1): 23719
- HDAC3 activity raw data (signal) ([3]; Conc. 3.33E-06 M, t2): 26034
- HDAC3 activity raw data (signal) ([3]; Conc. 3.70E-07 M, t1): 182063
- HDAC3 activity raw data (signal) ([3]; Conc. 3.70E-07 M, t2): 201749
- HDAC3 activity raw data (signal) ([3]; Conc. 4.12E-08 M, t1): 761011
- HDAC3 activity raw data (signal) ([3]; Conc. 4.12E-08 M, t2): 799167
- HDAC3 activity raw data (signal) ([3]; Conc. 4.57E-09 M, t1): 1249527
- HDAC3 activity raw data (signal) ([3]; Conc. 4.57E-09 M, t2): 1277477
- HDAC3 activity raw data (signal) ([3]; Conc. 5.08E-10 M, t1): 1537856
- HDAC3 activity raw data (signal) ([3]; Conc. 5.08E-10 M, t2): 1472354

Source: PMC8185074, “Anchor extension: a structure-guided approach to design cyclic peptides targeting enzyme active sites” (Nature Communications, 2021)
